System: 648629-189-R-J1-PDC spheroids with HUVEC/MSC, viability
Assay: Anticancer human tumor 648629-189-R-J1-PDC patient-derived bladder carcinoma cell line growth inhibition [PI3K]
Conditions: for IC50: curve of first compound; for viability, T/C: stronger effect = lower value
Method in brief: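 Combination activity was assessed by viability in multicellular tumor spheroids carrying HUVEC and MSC components. Agents were tested with PI3K inhibitors from a Cmax-based top dose (or 10 microM) downward in half-log increments.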

[1] = second compound 0.00316 µM, first compound 0.0316 µM
[2] = second compound 0.00316 µM, first compound 0.1 µM
[3] = second compound 0.00316 µM, first compound 0.316 µM
[4] = second compound 0.00316 µM, first compound 1 µM
[5] = second compound 0.00316 µM, first compound 3.16 µM
[6] = second compound 0.00316 µM, first compound 10 µM
[7] = second compound 0.01 µM, first compound 0.0316 µM
[8] = second compound 0.01 µM, first compound 0.1 µM
[9] = second compound 0.01 µM, first compound 0.316 µM
[10] = second compound 0.01 µM, first compound 1 µM
[11] = second compound 0.01 µM, first compound 3.16 µM
[12] = second compound 0.01 µM, first compound 10 µM
[13] = second compound 0.0316 µM, first compound 0.0316 µM
[14] = second compound 0.0316 µM, first compound 0.1 µM
[15] = second compound 0.0316 µM, first compound 0.316 µM
[16] = second compound 0.0316 µM, first compound 1 µM
[17] = second compound 0.0316 µM, first compound 3.16 µM
[18] = second compound 0.0316 µM, first compound 10 µM
[19] = second compound 0.1 µM, first compound 0.0316 µM
[20] = second compound 0.1 µM, first compound 0.1 µM
[21] = second compound 0.1 µM, first compound 0.316 µM
[22] = second compound 0.1 µM, first compound 1 µM
[23] = second compound 0.1 µM, first compound 3.16 µM
[24] = second compound 0.1 µM, first compound 10 µM
[25] = second compound 0.316 µM, first compound 0.0316 µM
[26] = second compound 0.316 µM, first compound 0.1 µM
[27] = second compound 0.316 µM, first compound 0.316 µM
[28] = second compound 0.316 µM, first compound 1 µM
[29] = second compound 0.316 µM, first compound 3.16 µM
[30] = second compound 0.316 µM, first compound 10 µM
[31] = second compound 1 µM, first compound 0.0316 µM
[32] = second compound 1 µM, first compound 0.1 µM
[33] = second compound 1 µM, first compound 0.316 µM
[34] = second compound 1 µM, first compound 1 µM
[35] = second compound 1 µM, first compound 3.16 µM
[36] = second compound 1 µM, first compound 10 µM
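Also: spheroids exposed to agents for seven days before reading.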
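For viability, T/C in this document: percent of vehicle control luminescence where 100% = DMSO treated spheroids.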

SMILES: C=CC(=O)N1CCN(c2nc(=O)n(-c3c(C)ccnc3C(C)C)c3nc(-c4c(O)cccc4F)c(F)cc23)C(C)C1 (stereo not given) + COc1c(OCCCN2CCOCC2)ccc2c3n(c(=NC(=O)c4cnc(N)nc4)nc12)CCN3
- IC50 (second compound 0.00316 µM): > 10000 nM
- IC50 (second compound 0.01 µM): > 10000 nM
- IC50 (second compound 0.0316 µM): > 10000 nM
- IC50 (second compound 0.1 µM): > 10000 nM
- IC50 (second compound 0.316 µM): < 31.6 nM
- IC50 (second compound 1 µM): < 31.6 nM
- viability, T/C [1]: 114%
- viability, T/C [2]: 108%
- viability, T/C [3]: 114%
- viability, T/C [4]: 108%
- viability, T/C [5]: 119%
- viability, T/C [6]: 99.9%
- viability, T/C [7]: 94.3%
- viability, T/C [8]: 91.3%
- viability, T/C [9]: 101%
- viability, T/C [10]: 113%
- viability, T/C [11]: 115%
- viability, T/C [12]: 79.1%
- viability, T/C [13]: 83.4%
- viability, T/C [14]: 81.9%
- viability, T/C [15]: 104%
- viability, T/C [16]: 94.6%
- viability, T/C [17]: 107%
- viability, T/C [18]: 87.8%
- viability, T/C [19]: 57.3%
- viability, T/C [20]: 64.5%
- viability, T/C [21]: 63.5%
- viability, T/C [22]: 79.1%
- viability, T/C [23]: 81.3%
- viability, T/C [24]: 77.2%
- viability, T/C [25]: 18.8%
- viability, T/C [26]: 22.1%
- viability, T/C [27]: 29%
- viability, T/C [28]: 25.5%
- viability, T/C [29]: 38%
- viability, T/C [30]: 35.3%
- viability, T/C [31]: 3.7%
- viability, T/C [32]: 4.13%
- viability, T/C [33]: 4.67%
- viability, T/C [34]: 6.38%
- viability, T/C [35]: 7.09%
- viability, T/C [36]: 8.01%

SMILES: CC(C)NCC(C(=O)N1CCN(c2ncnc3c2C(C)CC3O)CC1)c1ccc(Cl)cc1 (stereo not given) + COc1c(OCCCN2CCOCC2)ccc2c3n(c(=NC(=O)c4cnc(N)nc4)nc12)CCN3
- IC50 (second compound 0.00316 µM): 901 nM
- IC50 (second compound 0.01 µM): 1030 nM
- IC50 (second compound 0.0316 µM): 698 nM
- IC50 (second compound 0.1 µM): 144 nM
- IC50 (second compound 0.316 µM): < 31.6 nM
- IC50 (second compound 1 µM): < 31.6 nM
- viability, T/C [1]: 90.2%
- viability, T/C [2]: 91.7%
- viability, T/C [3]: 79%
- viability, T/C [4]: 45.4%
- viability, T/C [5]: 26.1%
- viability, T/C [6]: 14.3%
- viability, T/C [7]: 102%
- viability, T/C [8]: 73.5%
- viability, T/C [9]: 75.1%
- viability, T/C [10]: 54%
- viability, T/C [11]: 26.2%
- viability, T/C [12]: 13.3%
- viability, T/C [13]: 77.7%
- viability, T/C [14]: 77.6%
- viability, T/C [15]: 67.1%
- viability, T/C [16]: 40.5%
- viability, T/C [17]: 24.6%
- viability, T/C [18]: 11.6%
- viability, T/C [19]: 60.1%
- viability, T/C [20]: 51.3%
- viability, T/C [21]: 45%
- viability, T/C [22]: 27%
- viability, T/C [23]: 16.9%
- viability, T/C [24]: 8.23%
- viability, T/C [25]: 19.3%
- viability, T/C [26]: 18.4%
- viability, T/C [27]: 14.6%
- viability, T/C [28]: 12%
- viability, T/C [29]: 7.28%
- viability, T/C [30]: 2.74%
- viability, T/C [31]: 2.91%
- viability, T/C [32]: 2.63%
- viability, T/C [33]: 3.85%
- viability, T/C [34]: 3%
- viability, T/C [35]: 2.11%
- viability, T/C [36]: 0.84%

SMILES: CCN1CCN(Cc2ccc(Nc3ncc(F)c(-c4cc(F)c5nc(C)n(C(C)C)c5c4)n3)nc2)CC1 + COc1c(OCCCN2CCOCC2)ccc2c3n(c(=NC(=O)c4cnc(N)nc4)nc12)CCN3
- IC50 (second compound 0.00316 µM): > 1000 nM
- IC50 (second compound 0.01 µM): > 1000 nM
- IC50 (second compound 0.0316 µM): > 1000 nM
- IC50 (second compound 0.1 µM): > 1000 nM
- IC50 (second compound 0.316 µM): < 3.16 nM
- IC50 (second compound 1 µM): < 3.16 nM
- viability, T/C (second compound 0.00316 µM, first compound 0.00316 µM): 91%
- viability, T/C (second compound 0.00316 µM, first compound 0.01 µM): 94.8%
- viability, T/C [1]: 110%
- viability, T/C [2]: 101%
- viability, T/C [3]: 115%
- viability, T/C [4]: 104%
- viability, T/C (second compound 0.01 µM, first compound 0.00316 µM): 102%
- viability, T/C (second compound 0.01 µM, first compound 0.01 µM): 87.8%
- viability, T/C [7]: 98.9%
- viability, T/C [8]: 96.5%
- viability, T/C [9]: 103%
- viability, T/C [10]: 106%
- viability, T/C (second compound 0.0316 µM, first compound 0.00316 µM): 84.9%
- viability, T/C (second compound 0.0316 µM, first compound 0.01 µM): 79%
- viability, T/C [13]: 91.3%
- viability, T/C [14]: 88.5%
- viability, T/C [15]: 87.9%
- viability, T/C [16]: 91%
- viability, T/C (second compound 0.1 µM, first compound 0.00316 µM): 58.6%
- viability, T/C (second compound 0.1 µM, first compound 0.01 µM): 62.4%
- viability, T/C [19]: 56%
- viability, T/C [20]: 58.5%
- viability, T/C [21]: 66.6%
- viability, T/C [22]: 66.1%
- viability, T/C (second compound 0.316 µM, first compound 0.00316 µM): 21.4%
- viability, T/C (second compound 0.316 µM, first compound 0.01 µM): 18.9%
- viability, T/C [25]: 18.8%
- viability, T/C [26]: 19.7%
- viability, T/C [27]: 24.1%
- viability, T/C [28]: 21.7%
- viability, T/C (second compound 1 µM, first compound 0.00316 µM): 3.05%
- viability, T/C (second compound 1 µM, first compound 0.01 µM): 2.93%
- viability, T/C [31]: 2.76%
- viability, T/C [32]: 4.51%
- viability, T/C [33]: 6.23%
- viability, T/C [34]: 9.27%

SMILES: Cn1ncc(Cl)c1-c1cc(C(=O)NC(CN)Cc2cccc(F)c2)sc1Cl (stereo not given) + COc1c(OCCCN2CCOCC2)ccc2c3n(c(=NC(=O)c4cnc(N)nc4)nc12)CCN3
- IC50 (second compound 0.00316 µM): 620 nM
- IC50 (second compound 0.01 µM): 639 nM
- IC50 (second compound 0.0316 µM): 419 nM
- IC50 (second compound 0.1 µM): 110 nM
- IC50 (second compound 0.316 µM): < 31.6 nM
- IC50 (second compound 1 µM): < 31.6 nM
- viability, T/C [1]: 110%
- viability, T/C [2]: 102%
- viability, T/C [3]: 59.3%
- viability, T/C [4]: 40.3%
- viability, T/C [5]: 23.1%
- viability, T/C [6]: 7.29%
- viability, T/C [7]: 97.9%
- viability, T/C [8]: 84%
- viability, T/C [9]: 70.5%
- viability, T/C [10]: 35.2%
- viability, T/C [11]: 22.1%
- viability, T/C [12]: 6.56%
- viability, T/C [13]: 84.6%
- viability, T/C [14]: 78.2%
- viability, T/C [15]: 53.5%
- viability, T/C [16]: 32.2%
- viability, T/C [17]: 16.9%
- viability, T/C [18]: 4.04%
- viability, T/C [19]: 67.5%
- viability, T/C [20]: 52.1%
- viability, T/C [21]: 34%
- viability, T/C [22]: 21.8%
- viability, T/C [23]: 10.3%
- viability, T/C [24]: 3.19%
- viability, T/C [25]: 21.9%
- viability, T/C [26]: 16.6%
- viability, T/C [27]: 11.8%
- viability, T/C [28]: 7.56%
- viability, T/C [29]: 4.03%
- viability, T/C [30]: 1.46%
- viability, T/C [31]: 4.06%
- viability, T/C [32]: 2.7%
- viability, T/C [33]: 2.87%
- viability, T/C [34]: 2.72%
- viability, T/C [35]: 2.27%
- viability, T/C [36]: 0.3%

SMILES: Cn1nccc1Nc1nccc(-c2ccn(C(CO)c3ccc(Cl)c(F)c3)c(=O)c2)n1 (stereo not given) + COc1c(OCCCN2CCOCC2)ccc2c3n(c(=NC(=O)c4cnc(N)nc4)nc12)CCN3
- IC50 (second compound 0.00316 µM): > 10000 nM
- IC50 (second compound 0.01 µM): > 10000 nM
- IC50 (second compound 0.0316 µM): > 10000 nM
- IC50 (second compound 0.1 µM): > 10000 nM
- IC50 (second compound 0.316 µM): < 31.6 nM
- IC50 (second compound 1 µM): < 31.6 nM
- viability, T/C [1]: 103%
- viability, T/C [2]: 92.3%
- viability, T/C [3]: 106%
- viability, T/C [4]: 103%
- viability, T/C [5]: 98%
- viability, T/C [6]: 79.2%
- viability, T/C [7]: 113%
- viability, T/C [8]: 96.8%
- viability, T/C [9]: 104%
- viability, T/C [10]: 111%
- viability, T/C [11]: 107%
- viability, T/C [12]: 79.4%
- viability, T/C [13]: 90.9%
- viability, T/C [14]: 91.4%
- viability, T/C [15]: 86.3%
- viability, T/C [16]: 110%
- viability, T/C [17]: 102%
- viability, T/C [18]: 79.2%
- viability, T/C [19]: 70.1%
- viability, T/C [20]: 65.7%
- viability, T/C [21]: 64.2%
- viability, T/C [22]: 83%
- viability, T/C [23]: 83.3%
- viability, T/C [24]: 68.8%
- viability, T/C [25]: 20.6%
- viability, T/C [26]: 21.1%
- viability, T/C [27]: 26.9%
- viability, T/C [28]: 28.3%
- viability, T/C [29]: 48.6%
- viability, T/C [30]: 44.5%
- viability, T/C [31]: 3.68%
- viability, T/C [32]: 3.03%
- viability, T/C [33]: 3.39%
- viability, T/C [34]: 3.34%
- viability, T/C [35]: 8.78%
- viability, T/C [36]: 9.04%

Reference: PubChem BioAssay AID1963974 (Molecular Pharmacology Branch, DTP, NCI, 2024)
